Test results taken from patent publication US12539281B2 (priority 2021, dated 2026).

Assays:
[1] = test system: blood-brain barrier (BBB); conditions: intracardiac EA 3%, 1%, 0.3%, 0.1%, and 0.01% in 2% EB, rats
From the text: Set up the ultrasound imaging system before anesthetizing the rats; to anesthetize the rats in an induction chamber using 3-4% isoflurane in 100% oxygen at a rate of 0.2-0.5 L/min; to confirm proper anesthetization before performing imaging by pinching the toe, rolling the rats. • 2. Remove the fur over the thorax area using hair removal cream. • 3. Place the experimental animal on the imaging table in the supine position and secure both the upper and lower limbs with adhesive tape to avoid body movement during the procedure. • 4. Clean up the skin of the thorax area using a 10% povidone/iodine swab followed by a 70% ethanol swab. Apply a thick layer of gel to the thorax area of the animal. • 5. Mount the transducer and adjust the position until the left ventricle is clearly visible. • 6. […] To visualize pulsating blood, keep a small air column in the syringe; advance the syringe towards the animal thorax, adjust the needle trajectory using the ultrasound guidance, and enter the left ventricle, and to complete the IC injection within 30 seconds. • 7. Withdraw the needle, release that rat, and monitor until complete recovery from anesthesia
The rats are treated with varying concentrations of EA via intracardiac injection. […] Sham control (without treatment as negative control) is included in this experiment.

[2] = cited from earlier work
syngeneic mouse glioma = conditions: IA ethyl alcohol+Anti-PD-1 antibody vs untreated control and IV Anti-PD-1 antibody
Protocol: Standard protocols for immunohistochemistry are followed. The primary antibody is rabbit anti-CD8 (ab4055, Abcam). Three independent experimental fields are examined, and images are analyzed and quantitated using ImageJ software of the National Institutes of Health.

[3] = test system: blood-brain barrier (BBB); test: Microcatheter 3% EA-mediated delivery of Alexa Fluor 647-labeled anti-human IgG antibody, confocal imaging (Experiment 25); assay type: in vivo; conditions: 300 μL 3% EA via microcatheter then 10% labeled antibody, rats
Protocol: Following the perfusion of 300 μL of 3% EA through the intracerebral artery microcatheter, 10% Alexa Fluor® 647-labeled anti-human IgG antibody [EPR4421] (Ab307521, Abcam, UK) is slowly injected along the catheter (5-10 minutes). Two hours later, the brain tissue is perfused and removed after euthanasia. The pathological tissue sections are stained with DAPI, and confocal imaging is performed to evaluate the distribution of Alexa Fluor® 647-labeled anti-human IgG antibody in the rat brain. The experimental rats are injected with 300 μL of 0.9% NaCl without any concentration of EA as a negative control.
The blue color comes from the nuclei stained with DAPI. The pink color comes from the rabbit anti-human IgG antibody labeled with Alexa Fluor 647.

[4] = Comparison of the toxicity of IA NEO100 and IA EA (Experiment 21)
Protocol: The safety profile of IA 0.3% NEO100 vs. IA 0.3% EA are compared. […] There are 15 experimental mice in each testing group. The potential adverse effects are evaluated.

[5] = test system: blood-brain barrier (BBB); test: IA ethyl alcohol, NEO100 or mannitol mediated BBB disruption, extravasated EB dye in perfused mouse brain (Experiments 1-3); assay type: in vivo, mice; conditions: for EB dye / EB dye penetration level / Patchy, or punctate pattern of EB dye: perfused mouse brain
Protocol: The method of IA and IC injection is similar to the IV push in the clinic, which comprises essentially the steps of: • pushing the injection composition at a particular infusion flow rate immediately after the placement of the IA catheter into the internal carotid artery (ICA) or the insertion of the injection needle into the left ventricle via the ultrasound-guided intracardiac (IC) puncture at room temperature.
When performing the IA and IC injections, the infusion flow rate is about 5-7 μl/second (0.3-0.45 ml/min), the infusion volume is about […] of the body weight (at 1 μl/g, volume/weight ratio), and USP purified water or sodium chloride is used to reconstitute varied EA solutions at room temperature.
Intracardiac injection of NEO100 or EA can be carried out through the procedure of ultrasound-guided intracardiac (IC) injection. […] The mouse is anesthetized in an induction chamber using 2-3% isoflurane in 100% oxygen at a rate of 0.2-0.5 L/min. Fur over the thorax area is removed and the animal is placed in a stereotactic frame in supine position, securing the upper and lower limbs to avoid body movement. The ultrasound transducer is placed above the chest of the animal, and the injection syringe is anchored to a platform to avoid erratic needle movements. An electrocardiogram monitor is used to monitor heart function during the intracardiac injection.
EB dye is used as the non-BBB permeable substance.
Photographs of the perfused brain tissues of the experimental mice after treatment are taken.
Extravasated EB dye is used as the non-BBB permeable substance.

[6] = test system: blood-brain barrier (BBB); conditions: rats
From the text: In this experiment, the microcatheter is placed in the left internal carotid artery (ICA). The left internal carotid artery (ICA) leads to the left hemisphere of the brain. (That is, the selected intracerebral artery is the left internal carotid artery (ICA); and the target area is the left hemisphere of the brain.)
Evans blue (EB) dye is used as the non-BBB permeable substance.
To validate the limited, localized, and targeted BBB opening mediated by intra-arterial EA around the area supplied by the corresponding artery, a microcatheter is inserted from the CCA, proceeded along the ICA, positioned at the origin of the MCA, and infused with 300 μL of a 3% EA in a 2% EB dye solution. The effect of the compromised BBB can be determined by observing the penetration of the EB dye (doesn't pass through the BBB in normal physical condition).

[7] = test system: intracranial HER2-positive 4T1 breast cancer; conditions: IA ethyl alcohol with IV Trastuzumab vs IV Trastuzumab, mice with intracranial HER2-positive 4T1 tumor
[8] = test system: blood-brain barrier (BBB)
From the text: EB dye is used as the non-BBB permeable substance. […] Photos of the perfused brain tissues are taken for observations and comparisons.
EB dye is used as a non-BBB-permeable substance. […] Photographs of the perfused brain tissues harvested at different time points are taken for observation and comparison, as shown in FIG. 9 of the drawings.
As a negative control, photographs of perfused brain tissues were taken from the following animals: the normal untreated mice; the mice were intravenously administered 2% EB; and the mice received the same dose of 0.3% EA mixed with a 2% EB solution intravenously as applied via intracardiac injection.

tight junction proteins = conditions: immediately after IA EA is administered
From the text: The membrane and cytosolic proteins are extracted with a MEM-PER™ Plus Membrane Protein Extraction Kit (ThermoFisher Scientific, Waltham, MA USA). Proteins are separated by SDS-PAGE and transferred to nitrocellulose membranes. Primary antibodies used are rabbit anti-claudin-3 (ab15102), rabbit anti-claudin-5 (ab15106), rabbit anti-claudin-6 (ab99226), rabbit anti-JAM (ab125886), rabbit anti-occludin (ab222691, 1:200, Abcam, Cambridge, MA USA), and mouse anti-β-actin (66009, 1:1000, Proteintech, Rosemont, IL USA). Secondary antibodies used are HRP-conjugated goat anti-mouse (SA00001, 1:2500, Proteintech) and goat anti-rabbit (7074, 1:2500, Cell Signaling Technology).
Western Blot examined and quantified the tight junction proteins in brain tissues.

[9] = IA injection 0.3%, 15 mice per group, number of mice

## CCO [ethyl alcohol]
[1]
  tinted blue color (extravasated Evans blue) in brain: observed in all treatment groups
[2]
  solubility in water: infinitely soluble (fully miscible)
Syngeneic mouse glioma
  replenishment of CD8+ T lymphocytes inside the tumor: significantly enhance the replenishment of CD8+ T lymphocytes
[3]
  penetration and spread of Alexa Fluor 647-labeled anti-human IgG antibodies in the brain: significantly improve the penetration and spread
[4]; IA injection 0.3%, 15 mice per group
  tested animals that experienced adverse effects: less than 50%
[4]; [9]
  Immediate Sudden Death: 0
  Intermediate-lasting epilepsy post-injection leading to death: 0
  Long-lasting epilepsy post-injection leading death: 0
  Moderate-lasting epilepsy post-injection and survival to fully recovery: 3
  Transient, mild, or occasional epilepsy post-injection and survival to fully recovery: 3
[4]; IA injection 0.3%, 15 mice per group, listed as EA
  Mortality: 0%
[4]; repeated comparative experiments of IA EA and IA NEO100
  overall mortality rate: less than or equal to 1%
[5]; IA EA at 0.3%, 1%, and 3%, mice, superior and sagittal views
  spread of EB dye inside the brain tissues: homogenized, evenly spread EB dye inside the brain tissues is observed
[5]; IA agent at 0.1%
  EB dye: Observed
  EB dye penetration level: Widely
  Patchy, or punctate pattern of EB dye: Not
[5]; IA agent at 0.3%
  EB dye: Observed
  EB dye penetration level: Widely
  Patchy, or punctate pattern of EB dye: Not
[5]; IA agent at 3%
  EB dye: Observed
  EB dye penetration level: Widely
  Patchy, or punctate pattern of EB dye: Not
[5]; IA agent at 5%
  EB dye: Observed
  EB dye penetration level: Widely
  Patchy, or punctate pattern of EB dye: Not
[6]; 300 μL 3% EA in 2% EB, microcatheter at origin of MCA
  extent of BBB opening (EB dye penetration): site-specific BBB opening, which is limited to the area supplied by the MCA only
[6]; EA 0.1% to 0.5%, microcatheter in left ICA
  delivery of EB dye to target area: can be used to deliver EB dye to the left hemisphere of the brain
[7]
  Trastuzumab brain tumor entry (integrated optical density, confocal imaging): significantly enhance
[8]; 0.3% EA mixed with 2% EB given intravenously (negative control route), mice
  extravasated EB dye in brain after intravenous EA: No extravasated EB dye in any parts of the brain
[8]; IA 0.3% EA then IV 2% EB, euthanized immediately, mice
  BBB opening at 0 min time point: immediate, homogeneous, and highly efficient BBB opening
[8]; IA 0.3% ethyl alcohol, EB at 15, 60, 120, 240 min after, mice
  level of blue color observed in the brain as lagged time of EB administration increased: decreased
[8]; IA EA
  interval window of the breached BBB: about 2 hours
[8]; IA/intracardiac 0.3% EA, mice
  adverse effects: occasional adverse effects, such as mild epilepsy, but no moderate to severe epilepsy and sudden death were observed
[8]; iv, 0.25 h
  duration of transient BBB opening: ≤ 120 min
Tight junction proteins
  time for which tight junction proteins in the BBB are reduced: about 120 minutes
